The supplement of paper PMC10307832

What was measured:
Test in all cases: relative viability (nuclei count vs DMSO), 5 days (fraction); higher = more cells survive
MLN4924 + Pemetrexed = compound: NS(=O)(=O)OC[C@@H]1C[C@@H](n2ccc3c(N[C@H]4CCc5ccccc54)ncnc32)C[C@@H]1O [MLN4924] + Nc1nc2[nH]cc(CCc3ccc(C(=O)N[C@@H](CCC(=O)O)C(=O)O)cc3)c2c(=O)[nH]1 [Pemetrexed] (partner 0.2 µM)
In short: (§1)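 Five library-drug doses in √10 steps were combined with a fixed anchor-drug dose, or a single drug was given alone, by pin tool to lung cancer cell lines in 1536-well plates the day after seeding. Nuclei were stained and counted after 5 days. Relative viability is the nuclei count in treated wells over that in vehicle wells, taken as the median of duplicate plates.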

GSK126 + Palbociclib = compound: CC[C@H](C)N1C=C(C2=C(C=C(C=C21)C3=CN=C(C=C3)N4CCNCC4)C(=O)NCC5=C(C=C(NC5=O)C)C)C [GSK126] + CC(=O)c1c(C)c2cnc(Nc3ccc(N4CCNCC4)cn3)nc2n(C2CCCC2)c1=O [Palbociclib] (partner 0.5 µM)
In short: as §1

Carboplatin + Linsitinib = compound: C1CC(C1)(C(=O)O)C(=O)O.[NH2-].[NH2-].[Pt+2] [Carboplatin] + C[C@]1(O)C[C@@H](c2nc(-c3ccc4ccc(-c5ccccc5)nc4c3)c3c(N)nccn32)C1 [Linsitinib] (partner 1 µM)
In short: as §1

Carboplatin + Bortezomib = compound: C1CC(C1)(C(=O)O)C(=O)O.[NH2-].[NH2-].[Pt+2] [Carboplatin] + CC(C)C[C@H](NC(=O)[C@H](Cc1ccccc1)NC(=O)c1cnccn1)B(O)O [Bortezomib] (partner 0.002 µM)
In short: as §1

Cell Line | relative viability (MLN4924 + Pemetrexed; first compound 0.04 µM) | relative viability (MLN4924 + Pemetrexed; first compound 0.1265 µM) | relative viability (MLN4924 + Pemetrexed; first compound 0.4 µM) | relative viability (MLN4924 + Pemetrexed; first compound 1.265 µM) | relative viability (MLN4924 + Pemetrexed; first compound 4 µM) | relative viability (GSK126 + Palbociclib; first compound 0.08 µM) | relative viability (GSK126 + Palbociclib; first compound 0.253 µM) | relative viability (GSK126 + Palbociclib; first compound 0.8 µM) | relative viability (GSK126 + Palbociclib; first compound 2.53 µM) | relative viability (GSK126 + Palbociclib; first compound 8 µM) | relative viability (Carboplatin + Linsitinib; first compound 0.08 µM) | relative viability (Carboplatin + Linsitinib; first compound 0.253 µM) | relative viability (Carboplatin + Linsitinib; first compound 0.8 µM) | relative viability (Carboplatin + Linsitinib; first compound 2.53 µM) | relative viability (Carboplatin + Linsitinib; first compound 8 µM) | relative viability (Carboplatin + Bortezomib; first compound 0.08 µM) | relative viability (Carboplatin + Bortezomib; first compound 0.253 µM) | relative viability (Carboplatin + Bortezomib; first compound 0.8 µM) | relative viability (Carboplatin + Bortezomib; first compound 2.53 µM) | relative viability (Carboplatin + Bortezomib; first compound 8 µM)
LC-2-ad | 0.288 | 0.27 | 0.257 | 0.218 | 0.221 | 0.497 | 0.489 | 0.479 | 0.481 | 0.478 | 0.903 | 0.859 | 0.808 | 0.752 | 0.721 | 1.09 | 1.1 | 1.11 | 0.985 | 0.831
NCI-H322M | 0.719 | 0.776 | 0.549 | 0.3 | 0.422 | 0.568 | 0.488 | 0.505 | 0.485 | 0.45 | 0.915 | 0.956 | 0.785 | 0.812 | 0.799 | 1.26 | 1.23 | 1.2 | 1.22 | 1.14
LCLC-97TM1 | 0.147 | 0.18 | 0.0833 | 0.0476 | 0.0536 | 0.283 | 0.265 | 0.232 | 0.308 | 0.255 | 0.177 | – | 0.17 | 0.195 | 0.192 | 0.723 | 0.62 | 1.25 | 0.844 | 0.375
NCI-H1792 | 0.776 | 0.672 | 1.35 | 0.296 | 0.195 | 0.642 | 0.627 | 0.659 | 0.661 | 0.629 | 0.61 | 0.518 | 0.528 | 0.393 | 0.503 | 1.06 | 0.933 | 0.885 | 0.844 | 0.862
NCI-H1755 | 0.378 | 0.268 | 0.282 | 0.178 | 0.186 | 0.465 | 0.394 | 0.458 | 0.43 | 0.445 | 1.12 | 0.947 | 1.03 | 1.02 | 0.952 | 0.995 | 1.02 | 0.992 | 1.01 | 0.887
H3255 | 0.603 | 0.577 | 0.396 | 0.263 | 0.308 | 0.291 | 0.316 | 0.319 | 0.296 | 0.31 | 0.971 | 0.941 | 0.949 | 0.87 | 0.722 | 0.832 | 0.762 | 0.874 | 0.865 | 0.526
NCI-H23 | 0.74 | 0.842 | 0.421 | 0.256 | 0.213 | 0.6 | 0.583 | 0.565 | 0.628 | 0.515 | 0.536 | 0.716 | 0.542 | 0.563 | 0.492 | 1.1 | 1.11 | 1.08 | 0.861 | 0.784
